In patent US9642835B2, “Modulators of GTPase and use in relevant treatment” (STC.UNM, priority 2010, dated 2017):
pEC50: −log10 of the molar value.

Assays:
[1] = molecular target: Cdc42 ACT (Cdc42Q61L) (Homo sapiens, UniProt P60953, Q61L); experiment: Bead-based flow cytometry dose response, BODIPY-FL-GTP binding; conditions: in the presence of Mg ions; read-out: EC50 for Cdc42(Q61L)
Method: (§1) Bead sets for multiplex assays were custom synthesized by Duke Scientific Corp (Fremont, Calif.), but may now be ordered from Thermo/Fisher. […] Negative controls, contained the bead mixture with fluorescent GTP, 0.5 mM unlabeled GTP as a competitor, and 1% DMSO. […] The resulting time-dependent data (one file per plate) were analyzed using IDLQuery software to determine the compound activity in each well. Gating based on forward scatter (FS) and side scatter (SS) parameters was used to identify singlet bead populations. Gating based on FL8 emission distinguishes the beads coated with different proteins, and the median fluorescence per bead population was calculated. […] Baselines were set to 100% based on measurements from the 1% DMSO containing positive controls as further described in PubChem. {PubChem #72}
(§2) Briefly, compounds were serially diluted 1:3 a total of eight times from a starting concentration of 10 mM giving a 9-point dilution series in DMSO. The final concentrations of inhibitors in the assay ranged from 10 nM to 100 μM. Dose-response analyses were examined in the presence of NP-HPS buffer containing: a) 1 mM EDTA; or b) 1 mM MgCl2. […] For assays with EDTA we used one multiplex (Rab7 wt, Rab2 wt, H-Ras wt, H-RasG12V, Cdc42 wt, and Cdc42Q61L) and 3 single-plexes (for Rac1 wt, Rac1 Q61L and GST-GFP).
(§3) GTPase activators were identified on the basis of an increase in fluorescent GTP-binding.
(§4) In experiments including magnesium, six GST-GTPases were assayed simultaneously in a single multiplex (Rac1 wt, Rac1Q61L, RhoA wt, RhoAL63, Cdc42 wt and Cdc42Q61L) and 1 nM BODIPY-FL-GTP binding was measured in the presence or absence of the serial drug dilution series. Each dose response series was run in duplicate.

[2] = molecular target: T1, Cdc42 WT (Homo sapiens, UniProt P60953); experiment: as above; conditions: in the presence of Mg ions; read-out: EC50 for Cdc42 wt
T1 construct: purchased Cytoskeleton
Method: as §1, §2, §3, §4

[3] = test system: other Rho family GTPases (Rac1, RhoA); experiment: Multiplex dose response with Mg, BODIPY-FL-GTP binding; conditions: in the presence of Mg ions
Method: as §4

[4] = molecular target: His-Cdc42 binding to GST-PAK-PBD (Homo sapiens, UniProt P60953); experiment: In vitro Cdc42-GTPγS formation PAK-PBD pull-down; format: biochemical; conditions: 10 μM inhibitor
Method: For analysis of the effect of MLS000693334 on the formation of the GTP-bound form of Cdc42 in vitro, 40 nM His-Cdc42 wt incubated (20 min at 30 C) with various concentration of GTPγS in the presence of 1 mM EDTA containing NP-HPS buffer. Reaction stopped by adding of excess amount of MgCl2. Mixture incubated with 15 μl PAK-PBD/beads (Cytoskeleton Inc., Denver, Colo.) for 1 h. Washed 2× and active Cdc42 analyzed by Western blot using mAb for Cdc42 (Cytoskeleton Inc., Denver, Colo.) and Mouse TrueBlot Ultra: Horseradish Peroxidase anti-mouse IgG (eBioscience. San Diego, Calif.) followed by ECL (Thermo Scientific, Rockford, Ill.).
For in vitro Cdc42 activation measurements, DMSO or an equal volume of SID57578341 in DMSO were incubated for 20 min at 30° C. with 40 nM His-Cdc42 protein and varying concentrations of GTPγS in 1 mM EDTA-containing buffer (NP-HPS). Further nucleotide exchange was inhibited with the addition of excess MgCl2 (60 mM final) and transfer to ice. Activated Cdc42 protein was isolated from solution by adding 15 μl GST-PAK-PBD bound glutathione beads and rotation at 4° C. for 1 h. Activated Cdc42 bound to GST-PAK-PDB was resolved by SDS-PAGE (12% gels) and analyzed by immunoblot using mAb directed against Cdc42 (Cytoskeleton, Inc.) and ECL (Thermo Scientific, Rockford, Ill.). Quantification was by densitometry.

[5] = test system: Cdc42 in Swiss 3T3 cells; experiment: EGF induced Cdc42 membrane localization; format: cell-based; conditions: 1 μM
Method: Subconfluent cells were starved overnight in DMEM without serum and incubated with 1 or 10 μM inhibitor for 1 h. As a positive control, cells were stimulated with 100 ng/ml bradykinin for 30 min, or 100 ng/ml EGF as previously described {Kozma, 1995 #24}. Cells were washed with phosphate buffered saline, fixed with 3% paraformaldehyde, permeabilized for 5 min with 0.1% Triton X-100 in Tyrode's buffer, blocked for 1 h with 1% BSA in Tyrode's buffer, and stained for 1 h with rhodamine-phalloidin or Cdc42 mAb (Cytoskeleton Inc., Denver, Colo.) for 1 h followed by Cy3-conjugated goat-anti-mouse antibody (Jackson Immunoresearch Laboratories) for 1 h, at RT.

[6] = test system: Dbs (guanine nucleotide exchange factor) on Cdc42 wt; experiment: Effect on Dbs activity, [3H]GDP/GTP exchange; format: biochemical; conditions: 10 μM
Method: GSH-beads were coupled with Cdc42 wt, washed and incubated with 10 mM EDTA-NP-HPS for 20 min at 30° C. Nucleotide depleted enzyme washed with NP-HPS, and incubated with 2μCi [^3H]GDP in the presence of 1 mM EDTA (in NP-HPS buffer) for 20 min at 30° C. To prevent the dissociation of tritiated guanine nucleotide from the Cdc42, MgCl2 was added to a final concentration 20 mM. [^3H]GDP-Cdc42-beads washed and re-suspended in GDP exchange buffer (NP-HPS with 1 mM EDTA, 5 mM MgCl2, and 1 mM DTT) and 100 μl aliquots loaded in tubes and incubated with vehicle or 10 μM MLS000693334 for 15 min. Effect of the guanine nucleotide exchange factor domain, Dbs on GDP/GTP exchange in the presence and absence of inhibitor was measured after addition of 200 nM His-DBS (DH/PH domain). The GDP/GTP exchange reaction was initiated by addition of 250 nM GTP and incubation samples for 2 min 30 C. The reaction was stopped by transferring samples on ice. Cdc42-beads collected and washed twice with ice cold GDP exchange buffer and measured radioactivity, by loading samples in scintillation vial.

Chain of Cdc42 ACT (Cdc42Q61L) (P60953 whole entry Q61L): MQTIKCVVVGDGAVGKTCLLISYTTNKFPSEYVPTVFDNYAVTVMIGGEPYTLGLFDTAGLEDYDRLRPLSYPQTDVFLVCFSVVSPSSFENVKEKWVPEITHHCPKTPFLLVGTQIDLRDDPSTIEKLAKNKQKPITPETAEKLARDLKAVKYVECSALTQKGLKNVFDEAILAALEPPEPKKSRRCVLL
T1 sequence (P60953 whole entry): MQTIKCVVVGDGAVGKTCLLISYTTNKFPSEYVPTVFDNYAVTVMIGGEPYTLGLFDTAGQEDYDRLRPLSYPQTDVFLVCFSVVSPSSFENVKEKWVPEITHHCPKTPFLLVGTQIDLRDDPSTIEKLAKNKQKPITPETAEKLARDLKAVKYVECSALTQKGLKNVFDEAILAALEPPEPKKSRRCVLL
Chain of His-Cdc42 binding to GST-PAK-PBD (P60953 whole entry): as above

COc1ccc(C2CC(c3ccccc3)=NN2c2ccc(S(N)(=O)=O)cc2)cc1 (stereo not drawn) [MLS000693334, 4-[3-(4-methoxyphenyl)-5-phenyl-3,4-dihydropyrazol-2-yl]benzenesulfonamide]
pEC50 [1]: ~5.40
pEC50 [2]: ~5.40
Effect on activity of other Rho family GTPases [3]: did not affect activity
Complex formation of active Cdc42(GTPγS) with PAK-PBD [4]: dramatically reduced
EGF induced localization of Cdc42 on the membrane [5]: reduced membrane localization
Dbs activity (GDP/GTP exchange) [6]: did not changes Dbs activity
